Measured values from patent US12091426B2, “Bifunctional degraders of hematopoietic progenitor kinase and therapeutic uses thereof” (Nurix Therapeutics, Inc., priority 2021, dated 2024).

Target: T1, HPK1 (Homo sapiens, UniProt Q92918)
T1 construct: A HiBiT tag was introduced by CRISPR on the N terminus of HPK1 in Jurkat cells; host or cells: Jurkat cells (ATCC TIB-152), monoclonal line with CRISPR knock-in of HiBiT at the endogenous HPK1 locus
Assay: HPK1 Cellular HiBit Degradation Assay
Format: cell-based
Conditions: HiBiT HPK1 Jurkat cells, 24 hrs; for DC50: concentration at which 50% of HPK1 was remaining, read-out: DC50 Category; for Dmax: Jurkat, maximum degradation vs DMSO vehicle control, read-out: Dmax Category
Procedure, shortened: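 HPK1 levels are read by HiBiT luminescence after 24 h exposure of HiBiT-knock-in Jurkat cells to compound at 10 uM–0.1 nM final (11 points). Relative to DMSO (100%), DC50 is the concentration leaving 50% HPK1 from a variable-slope fit, and Dmax is 100 minus minimum remaining. Viability checked in-plate.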

T1 sequence (Q92918 whole entry): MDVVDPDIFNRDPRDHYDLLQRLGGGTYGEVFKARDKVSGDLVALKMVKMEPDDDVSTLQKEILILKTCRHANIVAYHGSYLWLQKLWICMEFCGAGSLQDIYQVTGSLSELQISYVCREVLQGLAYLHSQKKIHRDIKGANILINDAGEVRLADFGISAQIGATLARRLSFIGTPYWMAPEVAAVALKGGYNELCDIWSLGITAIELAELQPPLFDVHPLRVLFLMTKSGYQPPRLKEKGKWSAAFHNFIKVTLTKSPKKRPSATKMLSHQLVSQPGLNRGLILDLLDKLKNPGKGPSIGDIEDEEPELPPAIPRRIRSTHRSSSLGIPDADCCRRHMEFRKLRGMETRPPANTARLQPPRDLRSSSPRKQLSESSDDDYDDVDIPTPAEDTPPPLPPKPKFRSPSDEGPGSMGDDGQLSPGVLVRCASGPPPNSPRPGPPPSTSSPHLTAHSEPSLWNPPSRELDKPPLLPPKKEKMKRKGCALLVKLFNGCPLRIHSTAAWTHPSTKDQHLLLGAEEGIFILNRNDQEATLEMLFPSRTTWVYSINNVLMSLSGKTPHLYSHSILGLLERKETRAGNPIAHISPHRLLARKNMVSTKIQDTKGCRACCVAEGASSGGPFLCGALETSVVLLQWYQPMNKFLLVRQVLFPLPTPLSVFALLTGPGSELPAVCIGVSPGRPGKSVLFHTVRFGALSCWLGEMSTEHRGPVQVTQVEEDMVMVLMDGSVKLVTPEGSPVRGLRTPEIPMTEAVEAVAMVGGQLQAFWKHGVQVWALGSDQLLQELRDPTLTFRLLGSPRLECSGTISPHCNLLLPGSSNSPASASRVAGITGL

Structure (SMILES): CC(C)n1cnc2cc(-c3ccc4c(c3)N([C@H]3C[C@@H](N5CCCCC5)C3)C(=O)C43CCN(C(=O)C4CCN(C(=O)[C@H]5CC[C@H](Nc6cccc7c6C(=O)N(C6CCC(=O)NC6=O)C7=O)CC5)CC4)CC3)nc(NC3CC3)c21 (mixture of isomers) [Example 56, 2-[(3RS)-2,6-dioxopiperidin-3-yl]-4-{[(1R,4R)-4-[4-({6-[4-(cyclopropylamino)-3-(propan-2-yl)-3H-imidazo[4,5-c]pyridin-6-yl]-2-oxo-1-[(1S,3S)-3-(piperidin-1-yl)cyclobutyl]-1,2-dihydrospiro[indole-3,4′-piperidin]-1′-yl}carbonyl)piperidine-1-carbonyl]cyclohexyl]amino}-2,3-dihydro-1H-isoindole-1,3-dione]
- DC50: 500 to 1000 nM
- Dmax: 50 to 70%

Structure (SMILES): CC(C)n1cnc2cc(-c3ccc4c(c3)N([C@H]3C[C@@H](N5CCCCC5)C3)C(=O)C43CCN(C(=O)C4CCN(C(=O)C5CCN(c6ccc(C7CCC(=O)NC7=O)cc6)CC5)CC4)CC3)nc(Nc3ccccc3F)c21 (mixture of isomers) [Example 67, (3RS)-3-[4-(4-{4-[(6-{4-[(2-fluorophenyl)amino]-3-(propan-2-yl)-3H-imidazo[4,5-c]pyridin-6-yl}-2-oxo-1-[(1S,3S)-3-(piperidin-1-yl)cyclobutyl]-1,2-dihydrospiro[indole-3,4′-piperidin]-1′-yl)carbonyl]piperidine-1-carbonyl}piperidin-1-yl)phenyl]piperidine-2,6-dione]
- DC50: < 100 nM
- Dmax: 70 to 85%

Structure (SMILES): CC(C)n1cnc2cc(-c3ccc4c(c3)N([C@H]3C[C@@H](N5CCCCC5)C3)C(=O)C43CCN(C(=O)c4ccc(C(=O)N5CCN(c6ccc7c(c6)C(=O)N(C6CCC(=O)NC6=O)C7=O)CC5)nc4)CC3)nc(Nc3ccccc3F)c21 (mixture of isomers) [Example 45, 2-[(3RS)-2,6-dioxopiperidin-3-yl]-5-(4-{5-[(6-{4-[(2-fluorophenyl)amino]-3-(propan-2-yl)-3H-imidazo[4,5-c]pyridin-6-yl}-2-oxo-1-[(1S,3S)-3-(piperidin-1-yl)cyclobutyl]-1,2-dihydrospiro[indole-3,4′-piperidin]-1′-yl)carbonyl]pyridine-2-carbonyl}piperazin-1-yl)-2,3-dihydro-1H-isoindole-1,3-dione]
- DC50: 100 to 500 nM
- Dmax: 70 to 85%

Structure (SMILES): CC(C)n1cnc2cc(-c3ccc4c(c3)N([C@H]3C[C@@H](N5CCCCC5)C3)C(=O)C43CCN(C(=O)C4(C)CCN(C(=O)C5CCN(c6ccc(C7CCC(=O)NC7=O)cn6)CC5)CC4)CC3)nc(Nc3ccccc3F)c21 (mixture of isomers) [Example 114, (3RS)-3-[6-(4-{4-[(6-{4-[(2-fluorophenyl)amino]-3-(propan-2-yl)-3H-imidazo[4,5-c]pyridin-6-yl}-2-oxo-1-[(1S,3S)-3-(piperidin-1-yl)cyclobutyl]-1,2-dihydrospiro[indole-3,4′-piperidin]-1′-yl)carbonyl]-4-methylpiperidine-1-carbonyl}piperidin-1-yl)pyridin-3-yl]piperidine-2,6-dione]
- DC50: < 100 nM
- Dmax: 70 to 85%

Structure (SMILES): CC(C)n1cnc2cc(-c3ccc4c(c3)N([C@H]3C[C@@H](N5CCCCC5)C3)C(=O)C43CCN(C(=O)C4CCN(C(=O)[C@H]5CC[C@H](Nc6ccc(C7CCC(=O)NC7=O)cc6)CC5)CC4)CC3)nc(NC3CC3)c21 (mixture of isomers) [Example 53, (3RS)-3-(4-{[(1R,4R)-4-[4-({6-[4-(cyclopropylamino)-3-(propan-2-yl)-3H-imidazo[4,5-c]pyridin-6-yl]-2-oxo-1-[(1S,3S)-3-(piperidin-1-yl)cyclobutyl]-1,2-dihydrospiro[indole-3,4′-piperidin]-1′-yl}carbonyl)piperidine-1-carbonyl]cyclohexyl]amino}phenyl)piperidine-2,6-dione]
- DC50: 100 to 500 nM
- Dmax: 50 to 70%

Structure (SMILES): CC(C)n1cnc2cc(-c3ccc4c(c3)N([C@H]3C[C@@H](N5CCCCC5)C3)C(=O)C43CCN(C(=O)[C@H]4CC[C@H](C(=O)N5CCC(Nc6ccc(C7CCC(=O)NC7=O)cn6)CC5)CC4)CC3)nc(Nc3ccccc3F)c21 (stereo partly drawn) [Example 26, 3-(6-((1-((1R,4R)-4-(6-(4-((2-fluorophenyl)amino)-3-isopropyl-3H-imidazo[4,5-c]pyridin-6-yl)-2-oxo-1-((1s,3S)-3-(piperidin-1-yl)cyclobutyl)spiro[indoline-3,4′-piperidine]-1′-carbonyl)cyclohexane-1-carbonyl)piperidin-4-yl)amino)pyridin-3-yl)piperidine-2,6-dione]
- DC50: < 100 nM
- Dmax: 70 to 85%

Structure (SMILES): CC(C)n1cnc2cc(-c3ccc4c(c3)N([C@H]3C[C@@H](N5CCCCC5)C3)C(=O)C43CCN(C(=O)C4[C@@H]5C[C@H]4CN(C(=O)[C@H]4CC[C@H](Oc6ccc(C7CCC(=O)NC7=O)cc6)CC4)C5)CC3)nc(NC3CC3)c21 (stereo partly drawn) [Example 238, 3-(4-(((1R,4R)-4-((1R,5S,6S)-6-(6-(4-(cyclopropylamino)-3-isopropyl-3H-imidazo[4,5-c]pyridin-6-yl)-2-oxo-1-((1S,3S)-3-(piperidin-1-yl)cyclobutyl)spiro[indoline-3,4′-piperidine]-1′-carbonyl)-3-azabicyclo[3.1.1]heptane-3-carbonyl)cyclohexyl)oxy)phenyl)piperidine-2,6-dione]
- DC50: < 100 nM
- Dmax: > 85%

Structure (SMILES): CC(C)n1cnc2cc(-c3ccc4c(c3)N([C@H]3C[C@@H](N5CCCCC5)C3)C(=O)C43CCN(C(=O)[C@@H]4CCN(C(=O)[C@H]5CC[C@H](Nc6cccc7c6C(=O)N(C6CCC(=O)NC6=O)C7=O)CC5)C4)CC3)nc(Nc3ccncc3F)c21 (mixture of isomers) [Example 11, 2-[(3RS)-2,6-dioxopiperidin-3-yl]-4-{[(1R,4R)-4-[(3R)-3-[(6-{4-[(3-fluoropyridin-4-yl)amino]-3-(propan-2-yl)-3H-imidazo[4,5-c]pyridin-6-yl}-2-oxo-1-[(1S,3S)-3-(piperidin-1-yl)cyclobutyl]-1,2-dihydrospiro[indole-3,4′-piperidin]-1′-yl)carbonyl]pyrrolidine-1-carbonyl]cyclohexyl]amino}-2,3-dihydro-1H-isoindole-1,3-dione]
- DC50: 100 to 500 nM
- Dmax: 50 to 70%

Structure (SMILES): CC(C)n1cnc2cc(-c3ccc4c(c3)N([C@H]3C[C@@H](N5CCCCC5)C3)C(=O)C43CCN(C(=O)C4(C)CCN(C(=O)[C@H]5CC[C@H](Oc6ncc(C7CCC(=O)NC7=O)cn6)CC5)CC4)CC3)nc(NC3CC3)c21 (mixture of isomers) [Example 194, (3RS)-3-(2-{[(1R,4R)-4-[4-({6-[4-(cyclopropylamino)-3-(propan-2-yl)-3H-imidazo[4,5-c]pyridin-6-yl]-2-oxo-1-[(1S,3S)-3-(piperidin-1-yl)cyclobutyl]-1,2-dihydrospiro[indole-3,4′-piperidin]-1′-yl}carbonyl)-4-methylpiperidine-1-carbonyl]cyclohexyl]oxy}pyrimidin-5-yl)piperidine-2,6-dione]
- DC50: 100 to 500 nM
- Dmax: 70 to 85%

Structure (SMILES): CC(C)n1cnc2cc(-c3ccc4c(c3)N([C@H]3C[C@@H](N5CCCCC5)C3)C(=O)C43CCN(C(=O)c4ccc(C(=O)N5CCN(c6ccc(C7CCC(=O)NC7=O)cc6)CC5)cc4)CC3)nc(Nc3ccccc3F)c21 (mixture of isomers) [Example 40, (3RS)-3-[4-(4-{4-[(6-{4-[(2-fluorophenyl)amino]-3-(propan-2-yl)-3H-imidazo[4,5-c]pyridin-6-yl}-2-oxo-1-[(1S,3S)-3-(piperidin-1-yl)cyclobutyl]-1,2-dihydrospiro[indole-3,4′-piperidin]-1′-yl)carbonyl]benzoyl}piperazin-1-yl)phenyl]piperidine-2,6-dione]
- DC50: 500 to 1000 nM
- Dmax: 50 to 70%

Structure (SMILES): Cc1cc(F)c(Nc2nc(-c3ccc4c(c3)N([C@H]3C[C@@H](N5CCCCC5)C3)C(=O)C43CCN(C(=O)C4CCN(CC5CCN(c6cccc7c6n(C)c(=O)n7C6CCC(=O)NC6=O)CC5)CC4)CC3)cc3ncn(C(C)C)c23)cc1C(=O)NC(C)C (mixture of isomers) [Example 142, 5-{[6-(1′-{1-[(1-{1-[(3RS)-2,6-dioxopiperidin-3-yl]-3-methyl-2-oxo-2,3-dihydro-1H-1,3-benzodiazol-4-yl}piperidin-4-yl)methyl]piperidine-4-carbonyl}-2-oxo-1-[(1S,3S)-3-(piperidin-1-yl)cyclobutyl]-1,2-dihydrospiro[indole-3,4′-piperidin]-6-yl)-3-(propan-2-yl)-3H-imidazo[4,5-c]pyridin-4-yl]amino}-4-fluoro-2-methyl-N-(propan-2-yl)benzamide]
- DC50: 500 to 1000 nM
- Dmax: 70 to 85%

Structure (SMILES): CC(C)n1cnc2cc(-c3ccc4c(c3)N([C@H]3C[C@@H](N5CCCCC5)C3)C(=O)C43CCN(C(=O)C[C@@H]4CCN(C(=O)[C@H]5CC[C@@H](Nc6cccc7c6C(=O)N(C6CCC(=O)NC6=O)C7=O)CC5)C4)CC3)nc(NC3CC3)c21 (mixture of isomers) [Example 35, 2-[(3RS)-2,6-dioxopiperidin-3-yl]-4-{[(1R,4R)-4-[(3S)-3-(2-{6-[4-(cyclopropylamino)-3-(propan-2-yl)-3H-imidazo[4,5-c]pyridin-6-yl]-2-oxo-1-[(1S,3S)-3-(piperidin-1-yl)cyclobutyl]-1,2-dihydrospiro[indole-3,4′-piperidin]-1′-yl}-2-oxoethyl)pyrrolidine-1-carbonyl]cyclohexyl]amino}-2,3-dihydro-1H-isoindole-1,3-dione]
- DC50: 500 to 1000 nM
- Dmax: 50 to 70%

Structure (SMILES): Cc1cc(F)c(Nc2nc(-c3ccc4c(c3)N([C@H]3C[C@@H](N5CCCCC5)C3)C(=O)C43CCN(C(=O)C4CCN(C(=O)C5CCN(c6ccc(C7CCC(=O)NC7=O)cn6)CC5)CC4)CC3)cc3ncn(C(C)C)c23)cc1C(=O)NC(C)C (mixture of isomers) [Example 72, 5-[(6-{1′-[1-(1-{5-[(3RS)-2,6-dioxopiperidin-3-yl]pyridin-2-yl}piperidine-4-carbonyl)piperidine-4-carbonyl]-2-oxo-1-[(1S,3S)-3-(piperidin-1-yl)cyclobutyl]-1,2-dihydrospiro[indole-3,4′-piperidin]-6-yl}-3-(propan-2-yl)-3H-imidazo[4,5-c]pyridin-4-yl)amino]-4-fluoro-2-methyl-N-(propan-2-yl)benzamide]
- DC50: 100 to 500 nM
- Dmax: 70 to 85%
